Experimental data published in US8822211B2, “Device and method for concentrating and detecting pathogenic microbes from blood products and/or their derivatives” (Becton Dickinson Infusion Therapy Systems Inc., priority 2001, dated 2014).
Values joined by “and” are separate entries in the source; they are usually repeats but may differ in a detail not shown here. Equal values may be shown once.

Tests used:
Type in all cases: cell-based
[1] = test system: Staphylococcus epidermidis; assay: Platelet aggregation with ADP in the presence of pathogenic microbes, bacteria counting; conditions: 10 μM ADP
Description: Platelet aggregation in the presence of ADP comprised the following steps:
a cryobead of Staphylococcus epidermidis was introduced into a tube of 9 ml of tryptone soy broth and incubated at 37° C. for 18-24 hours;
onto 400 μl of platelet concentrate there was added 50 μl of the suspension of Staph. epidermidis and 50 μl of ADP;
(§1) the tubes were agitated manually for 5 minutes at ambient temperature;
500 μl of PBS buffer was added;
filtration was performed on a filter with a porosity of 5 μm;
dilutions were made in series of 1/20 and 1/10 and 1/10;
100 μl of the sample was filtered on a CB04 membrane;
labeling with an esterase was performed; and
The pathogenic microbes were seeded at a high concentration to augment a possible trapping effect. ADP was added to the platelets and the bacteria at a concentration of […].

[2] = test system: platelets (platelet concentrate PC 6); assay: Platelet aggregation with thrombin, counting of residual platelets after 11 μm filtration; conditions: 10 IU thrombin per test, PC 6, 5 minutes, 11 μm filter
Description: Thrombin is a strong agonist of platelet aggregation. Thrombin solutions (reference T8885 Sigma) were prepared at a concentration of 100 IU/ml when used at the rate of 10 IU/test and in diluted solution form (100 μl of thrombin mother solution with the addition of 900 μl of PBS buffer) when used at the rate of 1 IU/test.
Platelet aggregation by the intermediary of thrombin comprised:
placing 160 μl of platelet concentrate in a tube to which was added 20 μl of PBS buffer and 20 μl of thrombin;
as §1
800 μl of PBS buffer was added to the tubes;
the content of the tubes was filtered on a filter with a porosity of 11 μm;
dilutions were created in series 1/20 to 1/10 from the filtrates;
[…] of each dilution of the filtrate on a CB04 membrane were filtered;
an esterase labeling was performed; and
the platelets possibly retained on the membrane were counted.

E. coli = assay: Platelet aggregation with thrombin in the presence of pathogenic microbes, bacteria counting; conditions: for Counting results (E. coli): PC 6, 11 μm filter
Description: The experimental studies performed to evaluate the aggregation of pathogenic microbes in the presence of thrombin comprised the following steps:
a cryobead of E. coli was introduced into a tube of 9 ml of tryptone soy broth and incubated at 37° C. for 18-24 hours;
160 μl of platelet concentrate was added to 20 μl of the E. coli suspension and 20 μl of thrombin;
the tube was agitated manually for 5 minutes at ambient temperature;
800 μl of PBS buffer was added;
filtration was performed through a filter of 11 μm porosity;
dilutions in series were performed: 1/20 and 1/10 and 1/10;
filtration was performed on 100 μl of sample on a CB04 membrane;
labeling with esterase was performed; and […]

Compound: Nc1ncnc2c1ncn2[C@@H]1O[C@H](COP(=O)(O)OP(=O)(O)O)[C@@H](O)[C@H]1O [ADP]
- bacteria recovered after the aggregation step ([1]; PC 6): 74%
- Concentration bacteria/ml ([1]; PC 6, 5 μm filter): 4.7E+07 bacteria/ml
- Results (bacteria count) ([1]; PC 6, 5 μm filter): 492 and 441

Compound: Thrombin
- platelet count after aggregation and filtration [2]: 44 and 30
- Counting results (E. coli) (E. coli; 1 IU thrombin): 140 and 167
- Counting results (E. coli) (E. coli; 10 IU thrombin): 109 and 122
- clot formation after addition (E. coli; platelet concentrate with E. coli): A clot appeared almost instantly
